Where a SMILES comes first, the peptide text is derived from it. [ ]: non-standard residue; d: D form. Nle = CCCC[C@H](N)C(=O)O
Experiments:
[1] = tested on: unfolded protein response (UPR); assay: Immunoblot analysis of UPR markers (CHOP, PERK, IRE1α, XBP-1) in macrophages; conditions: 58035 alone, 5 h (FIG. 16B, lane 2)
ABCA1 protein = assay: ABCA1 immunoblot of total and cell-surface protein in cholesterol-loaded macrophages; assay type: cell-based, mouse; conditions: for decrease in ABCA1 protein in FC-loaded macrophages: calpeptin 40 μM, PD150606 25 μM (data not shown); for decrease in ABCA1 protein in free cholesterol-loaded macrophages: 50 μM
Description: Macrophages were pre-incubated for 14 h with 50 μg/ml acetyl-LDL in DMEM, 0.2% BSA, in the absence (CE) or presence (FC) of 58035. The cells were then incubated for 5 h with 100 μg/ml acetyl-LDL in DMEM, 0.2% BSA, in the absence or presence of 58035, respectively, with no further additions (Control) or in the presence of 10 μg/ml cycloheximide, 50 μM ALLN, or 50 μM lactacystin as indicated. Aliquots of cell lysates were then assayed for ABCA1 and β-actin protein by immunoblot analysis.
Macrophages were pre-incubated for 14 h with 50 μg/ml acetyl-LDL in DMEM, 0.2% BSA, in the absence (CE) or presence (FC) of 58035. […] Aliquots of total cell protein (top panel) or cell-surface protein (bottom panel) were then subjected to immunoblot analysis for ABCA1 and the standards β-actin or β1-integrin.
Macrophage monolayers in 35-mm dishes were washed with ice-cold PBS 3 times and then incubated with ice-cold PBS containing 0.5 mg/ml NHS—SS-biotin (Pierce) for 30 minutes at 4° C. After washing 5 times with ice-cold PBS containing 20 mM Tris-HCl, pH 8.0, the cells were scraped into PBS and pelleted by centrifugation. The pelleted macrophages were lysed in 50 μl RIPA buffer (0.5% sodium deoxycholate, 0.1% SDS, 1% Triton X-100, 20 mM Tris, 150 mM NaCl, and 5 mM EDTA, pH 8) containing 1 mM PMSF. […] of the lysate were subjected directly to 4-20% gradient SDS-polyacrylamide gel electrophoresis (SDS-PAGE) for determination of total ABCA1. The rest of the cell lysate was affinity-purified to isolate biotinylated proteins. Briefly, the cell lysates were diluted to 150 μl in RIPA buffer and incubated with 50 μl immobilized streptavidin agarose (Pierce), which was pre-washed three times with RIPA buffer at 0° C. for 2 h with gentle shaking. The agarose was pelleted by centrifugation using a microcentrifuge at 5,000 rpm for 2 min; the pellet was resuspended in 1 ml RIPA buffer, and the process was repeated 5 times. The agarose was resuspended 30 μl SDS-PAGE loading buffer containing 330 mM β-mercaptoethanol at 37^6C for 15 min and subjected to SDS-PAGE as above. ABCA1 and β-integrin were detected by Western blot using anti-ABCA1 and anti-β-integrin anti-sera. The blots were reprobed with anti-β-actin antibody, which detected no actin signal, thus verifying that no cytosolic protein was biotinylated by the procedure.
Peritoneal macrophages were lysed in RIPA buffer containing 1 mM PMSF. Nuclei were removed by centrifugation at 3000×g for 10 min at 4° C. […] For Western blot detection of ABCA1, anti-ABCA1 antiserum was used. Signals were detected using HRP-conjugated secondary anti-bodies (Bio-Rad) and ECL (Amersham Pharmacia Biotech). The membranes were reprobed with anti-β actin monoclonal antibody or anti-β1-integrin anti-serum for the proper internal controls. The relative intensities of the bands were determined by densitometry.

[2] = tested on: ABCA1 transporter activity (phospholipid efflux to apoA-I); assay: 3H-phospholipid efflux to apoA-I from free cholesterol-loaded macrophages; assay type: cell-based, mouse; conditions: 15 min at 37° C.
Description: Aliquots of free cholesterol-loaded cells were incubated for 15 min at 37° C. in the absence or presence of 0.5% or 0.2% […] (CD). This treatment removes about 30% of total cellular cholesterol. All cells were then chased with media containing 15 μg/ml apoA-I for 3.33 h and phospholipid efflux was measured as in FIG. 6C.
Macrophages were labeled with ^3H-choline (5 μCi/ml) in DMEM, 10% FBS, for 24 h. After washing three times with PBS, the macrophages were incubated with 100 μg/ml acetyl-LDL+58035 in DMEM, 0.2% BSA, for 5 h. The cells were then incubated with 15 μg/ml apoA-1 in DMEM, 0.2% BSA, for the indicated time periods. ^3H-choline-containing phospholipids in aliquots of the medium were extracted in chloroform:methanol (2:1, v/v), and those remaining in the cells in hexane:isopropyl alcohol (3:2, v/v). The radioactivity was measured by scintillation counting.

[3] = tested on: ABCA1-mediated cholesterol efflux; assay: 3H-cholesterol efflux to apoA-I from free cholesterol-loaded macrophages; assay type: cell-based, mouse; conditions: for cholesterol efflux to apoA-I from FC-loaded NPC+/− macrophages: 200 μM, 18 h apoA-1 incubation (FIG. 9D)
Description: Peritoneal macrophages from C57 mice were incubated for 5 h with 100 μg/ml ^3H-cholesterol-labeled acetyl-LDL in DMEM, 0.2% BSA, in the presence of 10 μg/ml 58035.
Acetyl-LDL (800 μg) was incubated with 10 μCi ^3H-cholesterol for 30 min at 37° C., followed by addition of 8 ml of DMEM, 0.2% BSA. The macrophages were incubated with this medium for 5 h, washed 3 times with PBS, and then incubated with DMEM, 0.2% BSA for 15 min at 37° C. After washing with PBS, the macrophages were incubated with DMEM, 0.2% BSA, containing either 15 μg/ml apoAI or 20 μg/ml HDL2. At the indicated time points, 100 μl of media was removed and centrifuged for 5 min at 14,000 rpm to pellet cellular debris. The radioactivity in this fraction of media was quantitated by liquid scintillation counting. After the last time point, the remainder of the media was removed, and the cells were dissolved in 0.5 ml of 0.1 N NaOH containing 0.5% sodium dodecylsulfate (5 h at room temperature). A 100 μl-aliquot of the cell lysate was counted, and the percent efflux was calculated as (media cpm)[…](cell +media cpm)×100. Total protein in the cell lysate was determined using the Bio-Rad DC protein assay kit. Note that there was no statistical difference in cellular cpm or protein between cholesteryl ester- and free cholesterol-loaded macrophages.

Molecule: CCCCCCCCCC[Si](C)(C)CCC(=O)NC(Cc1ccc(C)cc1)c1ccccc1 (stereo not shown) [compound 58035, 3-[decyldimethylsilyl]-N-[2-(4-methylphenyl)-1-phenylethyl] propanamide]
- PERK activation in macrophages [1]: partially activate PERK

Molecule: C[C@@H]1C[C@@H]([C@H](O)CC2CC(=O)NC(=O)C2)C(=O)[C@@H](C)C1 [cycloheximide]
- decrease in ABCA1 protein in free cholesterol-loaded cells (ABCA1 protein; 10 μg/ml cycloheximide, 5 h (FIG. 8B)): insensitive

Molecule: methyl-β-cyclodextrin
- defect in phosphatidylcholine efflux to apoA-I of free cholesterol-loaded cells ([2]; 0.5% or 0.2% (FIG. 6E)): reversed
- removal of total cellular cholesterol ([2]; 0.5% or 0.2%, FC-loaded cells): about 30%

Molecule: O=C(O)/C(S)=C/c1ccc(I)cc1 [PD150606]
- decrease in ABCA1 protein in FC-loaded macrophages (ABCA1 protein): did not affect the decrease in ABCA1

Molecule: CCCC[C@@H](C=O)NC(=O)[C@H](CC(C)C)NC(=O)[C@H](CC(C)C)NC(C)=O [ALLN] (Ac-Leu-Leu-[Nle]-aldehyde)
- decrease in ABCA1 protein in free cholesterol-loaded macrophages (ABCA1 protein; 5 h (FIG. 8B)): blocked the decrease in ABCA1

Molecule: [Na+].[Na+].[Na+].[O]=[V]([O-])([O-])[O-] [ortho-vanadate, sodium orthovanadate]
- cholesterol efflux to apoA-I from FC-loaded NPC+/− macrophages [3]: effectively blocked

Molecule: CCCC[C@@H](C=O)NC(=O)[C@H](CC(C)C)NC(=O)OCc1ccccc1 [calpeptin]
- decrease in ABCA1 protein in FC-loaded macrophages (ABCA1 protein): did not affect the decrease in ABCA1

Molecule: CC(=O)N[C@@H](CSC(=O)[C@]1([C@@H](O)C(C)C)NC(=O)[C@H](C)[C@@H]1O)C(=O)O [lactacystin]
- decrease in ABCA1 protein in free cholesterol-loaded macrophages (ABCA1 protein; 5 h (FIG. 8B)): blocked the decrease in ABCA1

Molecule: COc1ccc(Cl)cc1C(=O)NCCc1ccc(S(=O)(=O)NC(=O)NC2CCCCC2)cc1 [glyburide]
- cholesterol efflux to apoA-I from FC-loaded NPC+/− macrophages [3]: effectively blocked

Molecule: CN(C)CCCN1c2ccccc2CCc2ccccc21 [imipramine]
- ABCA1 protein expression in free cholesterol-loaded cells (ABCA1 protein; low concentrations): markedly enhance
- induction of cholesterol efflux to ApoA-1 ([3]; FC-loaded macrophages (FIGS. 11A, 11B)): marked ability to induce cholesterol efflux to ApoA-1
- restoration of ABCA1-dependent efflux ([3]; optimal low doses, FC-loaded macrophages (FIG. 12A)): restored ABCA1-dependent efflux
